Converted amounts (≈) assume the structure as drawn.

The assay can be described thus: Inhibition of bovine thymus p56-LCK protein tyrosine kinase activity. Also on record: species or system Bos taurus.
By IC50 is commonly meant the concentration at which inhibition is half-maximal. Higher therefore signals weaker potency in that assay. `O=c1c(O[C@H]2OC[C@@H](O)[C@@H](O)[C@@H]2O)c(-c2ccc(O)cc2)oc2cc(O)cc(O)c12`: the IC50 turned out to be 200 µg/mL (≈ 478 µM).

As to `O=c1cc(-c2ccc(O)cc2)oc2cc(O)cc(O)c12` [APIGENIN], the IC50 is 4 µg/mL (≈ 14.8 µM).

Regarding `O=c1c(O)c(-c2ccccc2O)oc2cc(O)cc(O)c12` [DATISCETIN], 60 µg/mL (≈ 210 µM) corresponded to half-maximal inhibition (IC50).

Compound `Cc1cc(O)c2c(c1)C(=O)c1cc(O)cc(O)c1C2=O` [EMODIN] came in with an IC50 of 10 µg/mL (≈ 37 µM).

Compound `O=c1c(O)c(-c2ccccc2)oc2cc(O)cc(O)c12` [GALANGIN] showed an IC50 of 30 µg/mL (≈ 111 µM).

For the compound `COc1ccc(-c2oc3cc(O)cc(O)c3c(=O)c2O)cc1` [KAEMPFERIDE], the IC50 came to 30 µg/mL (≈ 99.9 µM).

Compound `C[C@H]1O[C@H](Oc2c(-c3ccc(O)cc3)oc3cc(O)cc(O)c3c2=O)[C@@H](O)[C@@H](O)[C@@H]1O` [KAEMPFEROL-3-O-RHAMNOSIDE] returned an IC50 of 400 µg/mL (≈ 925 µM).

In turn, `O=c1c(O)c(-c2ccc(O)cc2)oc2cc(O)cc(O)c12` [KAEMPFEROL] showed a concentration for half-maximal inhibition (IC50) of 8 µg/mL (≈ 27.9 µM).

In turn, `O=c1cc(-c2ccc(O)c(O)c2)oc2cc(O)cc(O)c12` [LUTEOLIN] gave an IC50 of 4 µg/mL (≈ 14 µM).

With `O=c1c(O)c(-c2ccc(O)cc2O)oc2cc(O)cc(O)c12` [MORIN], the IC50 turned out to be 50 µg/mL (≈ 165 µM).

`O=c1c(O)c(-c2cc(O)c(O)c(O)c2)oc2cc(O)cc(O)c12` [MYRICETIN] registered an IC50 of 10 µg/mL (≈ 31.4 µM).

In the case of `O=c1c(O)c(-c2ccc(O)c(O)c2)oc2cc(O)cc(O)c12` [QUERCETIN], the IC50 was determined as 8 µg/mL (≈ 26.5 µM).

Take `O=c1c(O)c(-c2ccc(O)cc2)oc2cc(O)ccc12` [RESOKAEMPFEROL]: the IC50 turned out to be 5 µg/mL (≈ 18.5 µM).

The record behind these values is ChEMBL document CHEMBL1148171, “Flavonoids from Koelreuteria henryi and other sources as protein-tyrosine kinase inhibitors” (J Nat Prod, 1993).
